{
  "source": "PubChem BioAssay (NCI)",
  "assay_in_all_cases": "inhibition of tumour cell growth, NCI panel, 48 h",
  "key": {"SR leukemia": {"test_system": "SR leukemia"}, "EKVX NSCLC": {"test_system": "EKVX NSCLC"}, "NCI-H226 lung": {"test_system": "NCI-H226 lung"}, "NCI/ADR-RES ovarian": {"test_system": "NCI/ADR-RES ovarian"}, "SN12C renal": {"test_system": "SN12C renal"}, "HS 578T breast": {"test_system": "HS 578T breast"}, "NCI-H460 lung": {"test_system": "NCI-H460 lung"}, "SK-MEL-28 melanoma": {"test_system": "SK-MEL-28 melanoma"}, "HCT-15 colon": {"test_system": "HCT-15 colon"}, "HL-60(TB) leukemia": {"test_system": "HL-60(TB) leukemia"}, "A549 NSCLC": {"test_system": "A549 NSCLC"}, "NCI-H23 lung": {"test_system": "NCI-H23 lung"}, "K-562 leukemia": {"test_system": "K-562 leukemia"}, "MDA-MB-435": {"test_system": "MDA-MB-435"}, "MOLT-4 leukemia": {"test_system": "MOLT-4 leukemia"}, "SF-539 CNS": {"test_system": "SF-539 CNS"}, "SF-268 CNS": {"test_system": "SF-268 CNS"}, "PC-3 prostate": {"test_system": "PC-3 prostate"}, "SK-MEL-2 melanoma": {"test_system": "SK-MEL-2 melanoma"}, "CAKI-1 renal": {"test_system": "CAKI-1 renal"}},
  "note": "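Interpolation was linear, between the two tested concentrations surrounding the appropriate level; five concentrations were tested over 48 hours in 96-well plates. The concentration for full growth arrest is given as TGI.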",
  "data": [
    {"smiles": "Cc1ccc2[nH]c3c(c2c1)C1CCC(C(C)(C)C)CC1C1C(=O)N(c2ccc4c(c2)OCO4)C(=O)C31", "note": "(stereo not given)", "values": [
      {"measurement": "TGI", "setting": "SR leukemia", "value": 3.73, "unit": "µM"},
      {"measurement": "TGI", "setting": "EKVX NSCLC", "value": 10.1, "unit": "µM"},
      {"measurement": "TGI", "setting": "NCI-H226 lung", "value": 8.58, "unit": "µM"},
      {"measurement": "TGI", "setting": "NCI/ADR-RES ovarian", "value": 10.2, "unit": "µM"},
      {"measurement": "TGI", "setting": "SN12C renal", "value": 4.96, "unit": "µM"},
      {"measurement": "TGI", "setting": "HS 578T breast", "value": 3.53, "unit": "µM"},
      {"measurement": "TGI", "setting": "NCI-H460 lung", "value": 3.27, "unit": "µM"},
      {"measurement": "TGI", "setting": "SK-MEL-28 melanoma", "value": 17.9, "unit": "µM"},
      {"measurement": "TGI", "setting": "HCT-15 colon", "value": 16.5, "unit": "µM"},
      {"measurement": "TGI", "setting": "HL-60(TB) leukemia", "value": 11.9, "unit": "µM"},
      {"measurement": "TGI", "setting": "A549 NSCLC", "value": 6.38, "unit": "µM"},
      {"measurement": "TGI", "setting": "NCI-H23 lung", "value": 18.3, "unit": "µM"},
      {"measurement": "TGI", "setting": "K-562 leukemia", "value": 9.62, "unit": "µM"},
      {"measurement": "TGI", "setting": "MDA-MB-435", "value": 20.5, "unit": "µM"},
      {"measurement": "TGI", "setting": "MOLT-4 leukemia", "value": 4.25, "unit": "µM"},
      {"measurement": "TGI", "setting": "SF-539 CNS", "value": 2.74, "unit": "µM"},
      {"measurement": "TGI", "setting": "SF-268 CNS", "value": 5.04, "unit": "µM"},
      {"measurement": "TGI", "setting": "PC-3 prostate", "value": 9.17, "unit": "µM"},
      {"measurement": "TGI", "setting": "SK-MEL-2 melanoma", "value": 19.3, "unit": "µM"},
      {"measurement": "TGI", "setting": "CAKI-1 renal", "value": 5.54, "unit": "µM"}
    ]},
    {"smiles": "COC(=O)/C=C(/OC)[C@H](C)[C@H](/C=C/c1csc(-c2csc(C(C)C)n2)n1)OC", "values": [
      {"measurement": "TGI", "setting": "SR leukemia", "value": "> 100", "unit": "µM"},
      {"measurement": "TGI", "setting": "EKVX NSCLC", "value": "> 100", "unit": "µM"},
      {"measurement": "TGI", "setting": "NCI-H226 lung", "value": "> 100", "unit": "µM"},
      {"measurement": "TGI", "setting": "NCI/ADR-RES ovarian", "value": "> 100", "unit": "µM"},
      {"measurement": "TGI", "setting": "SN12C renal", "value": "> 100", "unit": "µM"},
      {"measurement": "TGI", "setting": "HS 578T breast", "value": "> 100", "unit": "µM"},
      {"measurement": "TGI", "setting": "NCI-H460 lung", "value": "> 100", "unit": "µM"},
      {"measurement": "TGI", "setting": "SK-MEL-28 melanoma", "value": "> 100", "unit": "µM"},
      {"measurement": "TGI", "setting": "HCT-15 colon", "value": "> 100", "unit": "µM"},
      {"measurement": "TGI", "setting": "HL-60(TB) leukemia", "value": 99.5, "unit": "µM"},
      {"measurement": "TGI", "setting": "A549 NSCLC", "value": "> 100", "unit": "µM"},
      {"measurement": "TGI", "setting": "NCI-H23 lung", "value": "> 100", "unit": "µM"},
      {"measurement": "TGI", "setting": "K-562 leukemia", "value": "> 100", "unit": "µM"},
      {"measurement": "TGI", "setting": "MDA-MB-435", "value": "> 100", "unit": "µM"},
      {"measurement": "TGI", "setting": "MOLT-4 leukemia", "value": "> 100", "unit": "µM"},
      {"measurement": "TGI", "setting": "SF-539 CNS", "value": "> 100", "unit": "µM"},
      {"measurement": "TGI", "setting": "SF-268 CNS", "value": "> 100", "unit": "µM"},
      {"measurement": "TGI", "setting": "PC-3 prostate", "value": "> 100", "unit": "µM"},
      {"measurement": "TGI", "setting": "SK-MEL-2 melanoma", "value": "> 100", "unit": "µM"},
      {"measurement": "TGI", "setting": "CAKI-1 renal", "value": "> 100", "unit": "µM"}
    ]}
  ]
}
